Measured values from patent publication US20180000085A1, “USE OF PICOLINAMIDE COMPOUNDS WITH FUNGICIDAL ACTIVITY” (DOW AGROSCIENCES LLC, priority 2014, published 2018).

Assays:
Type in all cases: in vivo
Zymoseptoria tritici = experiment: Leaf blotch of wheat (SEPTTR) disease control on wheat seedlings; conditions: low volume application, 125.1 g/H
Puccinia triticina = experiment: Wheat brown rust (PUCCRT) disease control on wheat seedlings; set-up: key to PUCCRT 3DC, HV activity at 100 ppm (% control rating) / PUCCRT disease control, 3DC / PUCCRT 1DP disease control rating, HV activity / PUCCRT 3DC disease control rating, HV activity / PUCCRT 3DC, LV activity at 125.1 g/H (% Control rating) / PUCCRT 1DP, LV activity at 125.1 g/H (% Control rating) / PUCCRT 3DC disease control rating, LV activity at 125.1 g/H / PUCCRT 1DP disease control rating, LV activity at 125.1 g/H / PUCCRT 3DC disease control rating, HV activity at 100 ppm / PUCCRT 1DP disease control rating, HV activity at 100 ppm / HV activity at 100 ppm PUCCRT 3DC (disease control rating) / LV activity at 125.1 g/H PUCCRT 1DP (disease control rating) / LV activity at 125.1 g/H PUCCRT 3DC (disease control rating): A: > 80; B: ≤ 80; C: Not Tested; D: No Activity Observed in the Reported Assay; conditions: low volume application, 125.1 g/H
Alternaria solani = experiment: Tomato early blight (ALTESO) disease control; set-up: key: A: > 80; B: ≤ 80; C: Not Tested; D: No Activity Observed in the Reported Assay; conditions: 100 ppm, 1 Day Protectant
Procedure: All fungicides were evaluated using the aforementioned method for their activity vs. all target diseases, unless stated otherwise. Wheat leaf blotch and brown rust activity were also evaluated using track spray applications, in which case the fungicides were formulated as EC formulations, containing 0.1% Trycol 5941 in the spray solutions. Wheat plants (variety Yuma) were grown from seed in a greenhouse in 50% mineral soil/50% soil-less Metro mix until the first leaf was fully emerged, with 7-10 seedlings per pot. These plants were inoculated with an aqueous spore suspension of Zymoseptoria tritici either prior to or after fungicide treatments. After inoculation the plants were kept in 100% relative humidity (one day in a dark dew chamber followed by two to three days in a lighted dew chamber at 20° C.) to permit spores to germinate and infect the leaf. The plants were then transferred to a greenhouse set at 20° C. for disease to develop. When disease symptoms were fully expressed on the 1st leaves of untreated plants, infection levels were assessed on a scale of 0 to 100 percent disease severity. Percent disease control was calculated using the ratio of disease severity on treated plants relative to untreated plants. Example J: Evaluation of Fungicidal Activity: Tomato Early Blight (Alternaria solani; Bayer Code […]) Tomato plants (variety Outdoor Girl) were propagated in soil-less Metro mix, with each pot having one plant, and used when 12 to 14 days old. Test plants were inoculated with an aqueous spore suspension of Alternaria solani 24 hr after fungicide treatments. After inoculation the plants were kept in a dew room at 22° C. with 100% relative humidity for 48 h to permit spores to germinate and infect the leaf. The plants were then transferred to a growth room at 22° C. for disease to develop. Fungicide formulation, application and disease assessment on the sprayed leaves followed the procedures as described in the Example A.

| Compound | SEPTTR 1DP, LV activity at 125.1 g/H (% Control rating) (Zymoseptoria tritici; 1 Day Protectant) | SEPTTR 3DC, LV activity at 125.1 g/H (% Control rating) (Zymoseptoria tritici; 3 Day Curative) | PUCCRT 1DP, LV activity at 125.1 g/H (% Control rating) (Puccinia triticina; 1 Day Protectant) | PUCCRT 3DC, LV activity at 125.1 g/H (% Control rating) (Puccinia triticina; 3 Day Curative) | ALTESO disease control, 1DP (Alternaria solani) | LV activity at 125.1 g/H SEPTTR 1DP (disease control rating) (Zymoseptoria tritici; 1 Day Protectant, wheat leaf blotch) | LV activity at 125.1 g/H SEPTTR 3DC (disease control rating) (Zymoseptoria tritici; 3 Day Curative, wheat leaf blotch) | LV activity at 125.1 g/H PUCCRT 1DP (disease control rating) (Puccinia triticina; 1 Day Protectant, wheat brown rust) | LV activity at 125.1 g/H PUCCRT 3DC (disease control rating) (Puccinia triticina; 3 Day Curative, wheat brown rust) | SEPTTR 1DP disease control rating, LV activity at 125.1 g/H (Zymoseptoria tritici; 1 day protectant) | SEPTTR 3DC disease control rating, LV activity at 125.1 g/H (Zymoseptoria tritici; 3 day curative) | PUCCRT 1DP disease control rating, LV activity at 125.1 g/H (Puccinia triticina; 1 day protectant) | PUCCRT 3DC disease control rating, LV activity at 125.1 g/H (Puccinia triticina; 3 day curative) |
| --- | --- | --- | --- | --- | --- | --- | --- | --- | --- | --- | --- | --- | --- |
| COc1ccnc(C(=O)N[C@@H](C)C(=O)O[C@@H](C)[C@@H](CC(C)C)Oc2ccccc2)c1OCOC(C)=O [Cmpd 557] | A (> 80) | A (> 80) | A (> 80) | A (> 80) | B (≤ 80) |  |  |  |  |  |  |  |  |
| CC[C@@H](CCOC)[C@@H](Oc1ccccc1)[C@H](C)OC(=O)[C@H](C)NC(=O)c1nccc(OC)c1OCOC(C)=O [Cmpd 476] | A (> 80) | A (> 80) | A (> 80) | A (> 80) | B (≤ 80) |  |  |  |  |  |  |  |  |
| COc1ccnc(C(=O)N[C@@H](C)C(=O)O[C@@H](C)[C@@H](CC(C)C)Oc2ccccc2)c1OCOC(=O)C(C)C [Cmpd 1101] |  |  |  |  | D | A (> 80) | A (> 80) | A (> 80) | A (> 80) |  |  |  |  |
| COc1ccnc(C(=O)N[C@@H](C)C(=O)O[C@@H](C)[C@H](Oc2cc(F)cc(Cl)c2)c2ccccc2)c1OC(C)=O [Cmpd 642] | A (> 80) | A (> 80) | A (> 80) | B (≤ 80) | D |  |  |  |  |  |  |  |  |
| CCC(C)C(Oc1ccccc1)C(C)OC(=O)C(C)NC(=O)c1nccc(OC)c1OC(C)=O (stereo not shown) [Cmpd 691] |  |  |  |  | D |  |  |  |  | A (> 80) | A (> 80) | A (> 80) | A (> 80) |
| COc1ccnc(C(=O)N[C@H](C)C(=O)O[C@H](C)[C@@H](Oc2ccccc2)c2ccccc2)c1OCOC(C)=O [Cmpd 549] | B (≤ 80) | B (≤ 80) | D | D | B (≤ 80) |  |  |  |  |  |  |  |  |
| COc1ccnc(C(=O)N[C@@H](C)C(=O)O[C@@H](C)[C@H](Oc2cccc(Cl)c2)c2ccccc2)c1OCOC(C)=O [Cmpd 637] | A (> 80) | A (> 80) | A (> 80) | B (≤ 80) | D |  |  |  |  |  |  |  |  |
| COc1ccnc(C(=O)N[C@@H](C)C(=O)O[C@H](C)[C@@H](Oc2ccccc2)c2ccccc2)c1OCOC(C)=O [Cmpd 547] | A (> 80) | A (> 80) | A (> 80) | A (> 80) | B (≤ 80) |  |  |  |  |  |  |  |  |
| COc1ccnc(C(=O)N[C@@H](C)C(=O)O[C@@H](C)[C@H](Oc2ccccc2)C(C)C)c1OCOC(C)=O [Cmpd 475] | A (> 80) | A (> 80) | A (> 80) | A (> 80) | B (≤ 80) |  |  |  |  |  |  |  |  |
| COc1ccnc(C(=O)N[C@H](C)C(=O)O[C@H](C)[C@@H](Oc2ccccc2)C(C)C)c1OCOC(C)=O [Cmpd 548] | B (≤ 80) | B (≤ 80) | D | D | B (≤ 80) |  |  |  |  |  |  |  |  |
| COc1ccnc(C(=O)N[C@@H](C)C(=O)O[C@@H](C)[C@H](Oc2ccccc2)C(C)C)c1OC(C)=O [Cmpd 478] | A (> 80) | A (> 80) | A (> 80) | A (> 80) | B (≤ 80) |  |  |  |  |  |  |  |  |
| COc1ccnc(C(=O)N[C@H](C)C(=O)O[C@H](C)[C@H](Oc2ccccc2)C(C)C)c1OCOC(C)=O [Cmpd 560] | B (≤ 80) | B (≤ 80) | D | D | B (≤ 80) |  |  |  |  |  |  |  |  |
| CCC(CC)[C@@H](Oc1ccccc1)[C@H](C)OC(=O)[C@H](C)NC(=O)c1nccc(OC)c1OC(C)=O [Cmpd 479] | A (> 80) | A (> 80) | A (> 80) | A (> 80) | B (≤ 80) |  |  |  |  |  |  |  |  |
| COc1ccnc(C(=O)N[C@@H](C)C(=O)O[C@@H](C)[C@H](Oc2cccc(F)c2)c2ccccc2)c1OCOC(C)=O [Cmpd 574] | A (> 80) | A (> 80) | A (> 80) | A (> 80) | B (≤ 80) |  |  |  |  |  |  |  |  |
